SMILES strings stand for the structures. In brackets after ≈: the same amount, converted by molar mass. Activity calls are given as the source filed them. The rule behind the calls is not given here.

Assay [1] has as its system C6. Nature of the assay: Cytotoxicity against rat C6 cells assessed as cell viability at 25 ug/ml after 24 hrs by MTT assay relative to control. The class given is functional. The settings on record: C6, 24 h, read-out: Activity.
The subject of assay [2] is C6. Briefly: Inhibition of DNA synthesis in rat C6 cells assessed as BrdU incorporation after 24 hrs by ELISA. The class given is functional, cell-based.
The test system of the next assay is Trichoderma harzianum. Nature of the assay: Antimicrobial activity against Trichoderma harzianum NRRL 20565 after 48 to 72 hrs by microbroth dilution method. The class given is functional. A general note: Broth dilution looks for growth in wells or tubes with falling amounts of substance.
In another assay the test system is Pseudomonas aeruginosa. Nature of the assay: Antimicrobial activity against Pseudomonas aeruginosa […] after 18 to 24 hrs by microbroth dilution method. Type of assay: functional.
The subject of the next assay is Micrococcus luteus. Briefly: Antimicrobial activity against Micrococcus luteus NRLL B-4375 after 18 to 24 hrs by microbroth dilution method. The class given is functional.
For the next assay, the system named is Bacillus subtilis. Nature of the assay: Antimicrobial activity against Bacillus subtilis NRS-744 after 18 to 24 hrs by microbroth dilution method. The class given is functional.
The subject of the next assay is Staphylococcus aureus. Nature of the assay: Antimicrobial activity against Staphylococcus aureus NRRL B-767 after 18 to 24 hrs by microbroth dilution method. Type of assay: functional.
For assay [3], the system named is C6. Briefly: Cytotoxicity against rat C6 cells assessed as cell viability at 6 ug/ml after 24 hrs by MTT assay relative to control. The class given is functional. Conditions: C6, 24 h, read-out: Activity. (In general: Formazan colour is commonly taken as a measure of viable cells.)
In a further assay the test system is Escherichia coli. Briefly: Antimicrobial activity against Escherichia coli ATCC 25922 after 18 to 24 hrs by microbroth dilution method. Type of assay: functional.
The next assay concerns Penicillium chrysogenum. Nature of the assay: Antimicrobial activity against Penicillium chrysogenum NRRL 1951 after 48 to 72 hrs by microbroth dilution method. Type of assay: functional.
In a further assay the test system is Fusarium culmorum. Briefly: Antimicrobial activity against wild type Fusarium culmorum after 48 to 72 hrs by microbroth dilution method. Type of assay: functional.
The subject of assay [4] is C6. Nature of the assay: Cytotoxicity against rat C6 cells assessed as cell viability at 200 ug/ml after 24 hrs by MTT assay relative to control. Type of assay: functional. The settings on record: C6, 24 h, read-out: Activity.
A further assay has as its system Aspergillus ochraceus. Briefly: Antimicrobial activity against Aspergillus ochraceus NRRL 3174 after 48 to 72 hrs by microbroth dilution method. Type of assay: functional.
Another assay concerns Aspergillus parasiticus. Nature of the assay: Antimicrobial activity against Aspergillus parasiticus NRRL 465 after 48 to 72 hrs by microbroth dilution method. Type of assay: functional.
A further assay has as its system Fusarium verticillioides. Nature of the assay: Antimicrobial activity against Fusarium moniliforme NRRL 1866 after 48 to 72 hrs by microbroth dilution method. Type of assay: functional.
In a further assay the test system is Fusarium solani. Nature of the assay: Antimicrobial activity against Fusarium solani NRRL 13414 after 48 to 72 hrs by microbroth dilution method. The class given is functional.
In the next assay the test system is Listeria monocytogenes. Nature of the assay: Antimicrobial activity against Listeria monocytogenes ATCC 7644 after 18 to 24 hrs by microbroth dilution method. Type of assay: functional.
The test system of another assay is NIH3T3. Nature of the assay: Cytotoxicity against mouse NIH/3T3 cells after 24 hrs by MTT assay. The class given is cell-based. Conditions: NIH3T3, 24 h.
Assay [5] relates to C6. Nature of the assay: Inhibition of DNA synthesis in rat C6 cells assessed as BrdU incorporation at IC50 after 24 hrs by ELISA. The class given is functional, cell-based. (In general: Dividing cells build labelled thymidine or BrdU into new DNA.)
The subject of assay [6] is C6. Nature of the assay: Cytotoxicity against rat C6 cells assessed as cell viability at 50 ug/ml after 24 hrs by MTT assay relative to control. The class given is functional. Conditions: C6, 24 h, read-out: Activity.
Assay [7] concerns C6. Briefly: Cytotoxicity against rat C6 cells after 24 hrs by MTT assay. Type of assay: functional, cell-based. The settings on record: C6, 24 h.
Assay [8] concerns C6. Nature of the assay: Cytotoxicity against rat C6 cells assessed as cell viability at 12 ug/ml after 24 hrs by MTT assay relative to control. The settings on record: C6, 24 h, read-out: Activity. Type of assay: functional.
Assay [9] relates to C6. Nature of the assay: Cytotoxicity against rat C6 cells assessed as cell viability at 100 ug/ml after 24 hrs by MTT assay relative to control. The class given is functional. The settings on record: C6, 24 h, read-out: Activity.
For another assay, the system named is Candida albicans. Briefly: Antimicrobial activity against Candida albicans ATCC 22019 after 18 to 24 hrs by microbroth dilution method. Type of assay: functional.

For the compound `O=C(CSc1nnnn1-c1ccccc1)N/N=c1/scc(-c2ccc(F)cc2)n1-c1ccccc1`, the viability at 25 µg/mL with C6 [1] came out at 49.3%. Also, the inhibition entry with C6 [2] is “Dose-dependent effect”. Further, the minimum inhibitory concentration (MIC) against Trichoderma harzianum was found to be 125 µg/mL (≈ 248 µM); with Pseudomonas aeruginosa it was 250 µg/mL (≈ 496 µM); in the assay on Micrococcus luteus it was 250 µg/mL (≈ 496 µM); against Bacillus subtilis it was 500 µg/mL (≈ 993 µM); in the assay on Staphylococcus aureus it was 250 µg/mL (≈ 496 µM); against Escherichia coli, 250 µg/mL (≈ 496 µM). The MIC in the assay on Penicillium chrysogenum came out at 250 µg/mL (≈ 496 µM); in the assay on Fusarium culmorum, 125 µg/mL (≈ 248 µM); against Aspergillus ochraceus, 250 µg/mL (≈ 496 µM); with Aspergillus parasiticus, 250 µg/mL (≈ 496 µM); in the assay on Fusarium verticillioides, 250 µg/mL (≈ 496 µM); against Fusarium solani, 250 µg/mL (≈ 496 µM). Besides, the MIC against Listeria monocytogenes and in the assay with Candida albicans was 250 µg/mL (≈ 496 µM) throughout. Also, the viability at 6 µg/mL in the assay with C6 [3] was determined as 74.9%. Moreover, the viability at 200 µg/mL with C6 [4] was 30.6%. For the same compound, the results for the IC50 in the assay with NIH3T3 and in the assay with C6 [7] were 207 µg/mL (≈ 410 µM) and 24.3 µg/mL (≈ 48.3 µM), respectively. Further, in the assay with C6 [5], the inhibition result was “Active”. The viability at 50 µg/mL in the assay with C6 [6] turned out to be 43.7%. Besides, the viability at 12 µg/mL in the assay on C6 [8] was determined as 60%. In addition, the viability at 100 µg/mL in the assay on C6 [9] is 35.8%.

In general, MIC refers to the lowest concentration found to suppress growth. Broadly, the IC50 is the concentration needed to halve the response being measured. Higher therefore signals weaker potency.

Source of the values: ChEMBL document CHEMBL3124777, “Synthesis and biological evaluation of thiazoline derivatives as new antimicrobial and anticancer agents” (Eur J Med Chem, 2014).
